Laboratory results taken from ChEMBL document CHEMBL5634096, “Design, synthesis and bioevaluation of PI3Kα-selective inhibitors as potential colorectal cancer drugs” (Eur J Med Chem, 2023).
Active and inactive are the calls of the source. The calls are words filed in the database; no cut-off is given here.

Tests used:
[1] = target: Phosphatidylinositol 4,5-bisphosphate 3-kinase catalytic subunit alpha isoform (Homo sapiens, UniProt P42336); assay: Inhibition of PI3Kalpha (unknown origin) by ADP-Glo luminescent kinase assay
[2] = target: Phosphatidylinositol 4,5-bisphosphate 3-kinase catalytic subunit beta isoform (Homo sapiens, UniProt P42338); assay: Inhibition of PI3Kbeta (unknown origin) by ADP-Glo luminescent kinase assay
[3] = target: T1, Phosphatidylinositol 4,5-bisphosphate 3-kinase catalytic subunit delta isoform (Homo sapiens, UniProt O00329); assay: Inhibition of PI3Kdelta (unknown origin) by ADP-Glo luminescent kinase assay
T1 sequence (O00329 whole entry): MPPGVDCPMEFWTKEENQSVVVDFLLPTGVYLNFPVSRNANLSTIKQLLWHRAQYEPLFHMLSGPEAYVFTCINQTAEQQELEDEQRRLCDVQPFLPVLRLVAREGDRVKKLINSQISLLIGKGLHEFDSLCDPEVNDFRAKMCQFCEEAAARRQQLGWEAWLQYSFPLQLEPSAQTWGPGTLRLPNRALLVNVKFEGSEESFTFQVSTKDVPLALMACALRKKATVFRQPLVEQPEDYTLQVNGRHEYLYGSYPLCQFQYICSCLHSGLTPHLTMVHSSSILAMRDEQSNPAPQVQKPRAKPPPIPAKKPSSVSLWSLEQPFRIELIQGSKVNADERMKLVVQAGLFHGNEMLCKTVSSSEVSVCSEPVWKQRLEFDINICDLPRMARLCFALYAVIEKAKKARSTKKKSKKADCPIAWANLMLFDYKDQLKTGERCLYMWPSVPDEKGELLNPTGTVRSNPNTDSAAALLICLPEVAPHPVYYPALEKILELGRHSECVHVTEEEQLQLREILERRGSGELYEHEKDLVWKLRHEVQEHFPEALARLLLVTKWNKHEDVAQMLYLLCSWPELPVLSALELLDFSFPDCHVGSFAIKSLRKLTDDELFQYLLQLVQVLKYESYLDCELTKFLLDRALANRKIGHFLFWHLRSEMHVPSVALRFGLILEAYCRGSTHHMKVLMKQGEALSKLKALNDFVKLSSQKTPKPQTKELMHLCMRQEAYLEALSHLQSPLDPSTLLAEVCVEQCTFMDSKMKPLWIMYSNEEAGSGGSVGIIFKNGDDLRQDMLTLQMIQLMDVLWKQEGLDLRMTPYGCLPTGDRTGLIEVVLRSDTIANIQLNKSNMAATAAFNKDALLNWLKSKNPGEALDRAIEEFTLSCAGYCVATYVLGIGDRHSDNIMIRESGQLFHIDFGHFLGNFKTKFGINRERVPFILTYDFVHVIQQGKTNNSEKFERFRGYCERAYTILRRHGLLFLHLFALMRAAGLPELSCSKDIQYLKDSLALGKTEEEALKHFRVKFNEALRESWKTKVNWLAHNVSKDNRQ

[4] = target: Phosphatidylinositol 4,5-bisphosphate 3-kinase catalytic subunit gamma isoform (Homo sapiens, UniProt P48736); assay: Inhibition of PI3Kgamma (unknown origin) by ADP-Glo luminescent kinase assay
[5] = system: MCF7; assay: Antiproliferative activity against human MCF7 cells assessed as reduction in cell viability incubated for 24 to 48 hrs by CCK-8 assay; assay type: functional, cell-based
[6] = system: HCT-116; assay: Antiproliferative activity against human HCT-116 cells assessed as reduction in cell viability incubated for 24 to 48 hrs by CCK-8 assay; assay type: functional, cell-based
[7] = system: MDA-MB-231; assay: Antiproliferative activity against human MDA-MB-231 cells assessed as reduction in cell viability incubated for 24 to 48 hrs by CCK-8 assay; assay type: functional, cell-based
[8] = system: SW-620; assay: Antiproliferative activity against human SW-620 cells assessed as reduction in cell viability incubated for 24 to 48 hrs by CCK-8 assay; assay type: functional, cell-based
[9] = system: MCF7; assay: Antiproliferative activity against human MCF7 cells expressing PIK3CA with E545K mutation assessed as reduction in cell viability incubated for 24 to 48 hrs by CCK-8 assay; assay type: functional, cell-based
[10] = system: HCT-116; assay: Antiproliferative activity against human HCT-116 cells expressing PIK3CA with H1047R mutation assessed as reduction in cell viability incubated for 24 to 48 hrs by CCK-8 assay; assay type: functional, cell-based
[11] = Cytotoxicity against human MCF-10A cells assessed as reduction in cell viability incubated for 24 to 48 hrs by CCK-8 assay; assay type: toxicity, cell-based
[12] = Cytotoxicity against human NCM460 cells assessed as reduction in cell viability incubated for 24 to 48 hrs by CCK-8 assay; assay type: toxicity, cell-based
[13] = Metabolic stability in Sprague-Dawley rat liver microsomes assessed as compound remaining at 5 ug/ml incubated for 1 hr in presence of NADPH by LC-MS/MS analysis; assay type: ADME, Microsome; details: at 5 µg/mL, read-out: Stability
[14] = Metabolic stability in Sprague-Dawley rat liver microsomes assessed as half life at 5 ug/ml incubated for 1 hr in presence of NADPH by LC-MS/MS analysis; assay type: ADME, Microsome; details: dose 5 µg/ml
[15] = Metabolic stability in Sprague-Dawley rat liver microsomes assessed as intrinsic clearance at 5 ug/ml incubated for 1 hr in presence of NADPH by LC-MS/MS analysis; assay type: ADME, Microsome; details: dose 5 µg/ml
[16] = target: Cytochrome P450 1A2 (Homo sapiens, UniProt P05177); assay: Inhibition of CYP1A2 in human liver microsomes using phenacetin as substrate pre-incubated for 30 mins followed by substrate addition and measured after 15 mins in presence of NADPH by LC/MS analysis; assay type: ADME, Microsome
[17] = target: Cytochrome P450 2C9 (Homo sapiens, UniProt P11712); assay: Inhibition of CYP2C9 in human liver microsomes using tolbutamide as substrate pre-incubated for 30 mins followed by substrate addition and measured after 15 mins in presence of NADPH by LC/MS analysis; assay type: ADME, Microsome
[18] = target: Cytochrome P450 2C19 (Homo sapiens, UniProt P33261); assay: Inhibition of CYP2C19 in human liver microsomes using omeprazole as substrate pre-incubated for 30 mins followed by substrate addition and measured after 15 mins in presence of NADPH by LC/MS analysis; assay type: ADME, Microsome
[19] = target: Cytochrome P450 2D6 (Homo sapiens, UniProt P10635); assay: Inhibition of CYP2D6 in human liver microsomes using dextromethorphan as substrate pre-incubated for 30 mins followed by substrate addition and measured after 15 mins in presence of NADPH by LC/MS analysis; assay type: ADME, Microsome
[20] = target: Cytochrome P450 3A4 (Homo sapiens, UniProt P08684); assay: Inhibition of CYP3A4 in human liver microsomes using midazolam as substrate pre-incubated for 30 mins followed by substrate addition and measured after 15 mins in presence of NADPH by LC/MS analysis; assay type: ADME, Microsome
[21] = AUC (0 to t) in Sprague-Dawley rat at 5 mg/kg, iv measured upto 24 hrs by LC-MS analysis; assay type: ADME, organism-based; details: in vivo
[22] = AUC (0 to infinity) in Sprague-Dawley rat at 5 mg/kg, iv measured upto 24 hrs by LC-MS analysis; assay type: ADME, organism-based; details: in vivo
[23] = MRT (0 to t) in Sprague-Dawley rat at 5 mg/kg, iv measured upto 24 hrs by LC-MS analysis; assay type: ADME, organism-based; details: in vivo
[24] = MRT (0 to infinity) in Sprague-Dawley rat at 5 mg/kg, iv measured upto 24 hrs by LC-MS analysis; assay type: ADME, organism-based; details: in vivo
[25] = Half life in Sprague-Dawley rat at 5 mg/kg, iv measured upto 24 hrs by LC-MS analysis; assay type: ADME, organism-based; details: in vivo
[26] = Clearance in Sprague-Dawley rat at 5 mg/kg, iv measured upto 24 hrs by LC-MS analysis; assay type: ADME, organism-based; details: in vivo
[27] = Volume of distribution in Sprague-Dawley rat at 5 mg/kg, iv measured upto 24 hrs by LC-MS analysis; assay type: ADME, organism-based; details: in vivo
[28] = Cmax in Sprague-Dawley rat at 5 mg/kg, iv measured upto 24 hrs by LC-MS analysis; assay type: ADME, organism-based; details: in vivo
[29] = system: HCT-116; assay: Antiproliferative activity against human HCT-116 cells assessed as reduction in cell viability incubated for 48 hrs by CCK-8 assay; assay type: functional, cell-based; details: dose 20-80 µM
[30] = system: HCT-116; assay: Antiproliferative activity against human HCT-116 cells assessed as inhibition of colony formation at 6 uM incubated for 48 hrs by crystal violet staining based assay; assay type: functional, cell-based
[31] = system: HCT-116; assay: Induction of apoptosis in human HCT-116 cells assessed as increased total apoptotic cells at 6 uM incubated for 48 hrs by Annexin V-FITC and propidium iodide staining based flow cytometry analysis (reference value: 4.22 %); assay type: functional
[32] = Metabolic stability in Sprague-Dawley rat plasma assessed as compound remaining measured upto 3 hrs by LC-MS/MS analysis; assay type: ADME, cell-free
[33] = Metabolic stability in artificial gastrointestinal fluid assessed as compound remaining measured upto 8 hrs by LC-MS/MS analysis; assay type: ADME

Sequence of Phosphatidylinositol 4,5-bisphosphate 3-kinase catalytic subunit alpha isoform (P42336 whole entry, canonical isoform): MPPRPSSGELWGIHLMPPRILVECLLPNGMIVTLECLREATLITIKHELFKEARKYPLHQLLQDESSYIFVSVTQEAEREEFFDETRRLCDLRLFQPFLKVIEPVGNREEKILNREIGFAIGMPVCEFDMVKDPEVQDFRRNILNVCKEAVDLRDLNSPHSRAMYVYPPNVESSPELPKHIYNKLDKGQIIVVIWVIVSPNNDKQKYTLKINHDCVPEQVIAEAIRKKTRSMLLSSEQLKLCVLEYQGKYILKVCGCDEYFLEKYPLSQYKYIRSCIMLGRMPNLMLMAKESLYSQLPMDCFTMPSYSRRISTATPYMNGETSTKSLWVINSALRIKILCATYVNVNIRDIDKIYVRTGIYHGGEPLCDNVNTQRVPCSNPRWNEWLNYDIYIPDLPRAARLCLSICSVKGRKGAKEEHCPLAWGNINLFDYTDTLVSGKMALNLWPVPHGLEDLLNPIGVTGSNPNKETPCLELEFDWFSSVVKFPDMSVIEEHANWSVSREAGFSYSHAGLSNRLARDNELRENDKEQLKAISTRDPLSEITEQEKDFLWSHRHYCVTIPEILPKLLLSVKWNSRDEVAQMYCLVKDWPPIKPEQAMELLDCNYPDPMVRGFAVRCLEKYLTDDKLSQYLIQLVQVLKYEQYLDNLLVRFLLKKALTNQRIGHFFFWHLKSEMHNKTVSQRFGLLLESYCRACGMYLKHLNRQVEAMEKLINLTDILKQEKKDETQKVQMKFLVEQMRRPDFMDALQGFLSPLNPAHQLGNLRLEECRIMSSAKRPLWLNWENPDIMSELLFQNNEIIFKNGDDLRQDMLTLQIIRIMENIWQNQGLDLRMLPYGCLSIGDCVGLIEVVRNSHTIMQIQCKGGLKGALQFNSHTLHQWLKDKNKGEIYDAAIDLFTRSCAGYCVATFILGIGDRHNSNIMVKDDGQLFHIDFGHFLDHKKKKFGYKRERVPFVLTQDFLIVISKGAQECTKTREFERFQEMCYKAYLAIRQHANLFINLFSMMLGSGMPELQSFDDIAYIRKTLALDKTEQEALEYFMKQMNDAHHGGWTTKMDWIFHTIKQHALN
Sequence of Phosphatidylinositol 4,5-bisphosphate 3-kinase catalytic subunit gamma isoform (P48736 whole entry, canonical isoform): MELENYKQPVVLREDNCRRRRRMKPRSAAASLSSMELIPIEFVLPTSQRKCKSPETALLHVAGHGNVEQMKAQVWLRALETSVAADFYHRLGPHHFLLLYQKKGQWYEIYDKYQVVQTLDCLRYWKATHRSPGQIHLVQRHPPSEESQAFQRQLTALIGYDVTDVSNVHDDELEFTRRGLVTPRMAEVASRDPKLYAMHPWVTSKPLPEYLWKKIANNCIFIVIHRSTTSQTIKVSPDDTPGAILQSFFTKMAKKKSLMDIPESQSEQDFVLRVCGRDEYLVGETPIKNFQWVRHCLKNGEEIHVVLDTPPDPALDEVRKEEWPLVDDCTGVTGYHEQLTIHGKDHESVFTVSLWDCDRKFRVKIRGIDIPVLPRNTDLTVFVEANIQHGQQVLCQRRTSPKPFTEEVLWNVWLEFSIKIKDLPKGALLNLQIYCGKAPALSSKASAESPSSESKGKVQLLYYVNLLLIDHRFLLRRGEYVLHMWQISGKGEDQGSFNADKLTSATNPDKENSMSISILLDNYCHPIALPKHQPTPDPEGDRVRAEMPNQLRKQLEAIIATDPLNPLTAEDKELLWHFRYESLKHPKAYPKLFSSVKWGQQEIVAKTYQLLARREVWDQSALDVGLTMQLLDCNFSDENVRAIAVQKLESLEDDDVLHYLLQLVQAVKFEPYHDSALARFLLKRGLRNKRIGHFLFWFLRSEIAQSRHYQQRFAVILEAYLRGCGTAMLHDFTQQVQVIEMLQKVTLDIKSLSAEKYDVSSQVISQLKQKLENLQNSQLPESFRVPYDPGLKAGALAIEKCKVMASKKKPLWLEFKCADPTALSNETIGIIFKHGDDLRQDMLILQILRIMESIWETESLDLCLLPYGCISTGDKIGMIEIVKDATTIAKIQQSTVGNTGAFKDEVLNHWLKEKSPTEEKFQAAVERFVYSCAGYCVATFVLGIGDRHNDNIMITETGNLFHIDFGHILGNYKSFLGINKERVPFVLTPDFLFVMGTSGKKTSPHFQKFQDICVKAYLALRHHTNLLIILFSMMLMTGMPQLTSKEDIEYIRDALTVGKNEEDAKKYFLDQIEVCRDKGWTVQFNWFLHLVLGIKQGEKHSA
Sequence of Phosphatidylinositol 4,5-bisphosphate 3-kinase catalytic subunit beta isoform (P42338 whole entry, canonical isoform): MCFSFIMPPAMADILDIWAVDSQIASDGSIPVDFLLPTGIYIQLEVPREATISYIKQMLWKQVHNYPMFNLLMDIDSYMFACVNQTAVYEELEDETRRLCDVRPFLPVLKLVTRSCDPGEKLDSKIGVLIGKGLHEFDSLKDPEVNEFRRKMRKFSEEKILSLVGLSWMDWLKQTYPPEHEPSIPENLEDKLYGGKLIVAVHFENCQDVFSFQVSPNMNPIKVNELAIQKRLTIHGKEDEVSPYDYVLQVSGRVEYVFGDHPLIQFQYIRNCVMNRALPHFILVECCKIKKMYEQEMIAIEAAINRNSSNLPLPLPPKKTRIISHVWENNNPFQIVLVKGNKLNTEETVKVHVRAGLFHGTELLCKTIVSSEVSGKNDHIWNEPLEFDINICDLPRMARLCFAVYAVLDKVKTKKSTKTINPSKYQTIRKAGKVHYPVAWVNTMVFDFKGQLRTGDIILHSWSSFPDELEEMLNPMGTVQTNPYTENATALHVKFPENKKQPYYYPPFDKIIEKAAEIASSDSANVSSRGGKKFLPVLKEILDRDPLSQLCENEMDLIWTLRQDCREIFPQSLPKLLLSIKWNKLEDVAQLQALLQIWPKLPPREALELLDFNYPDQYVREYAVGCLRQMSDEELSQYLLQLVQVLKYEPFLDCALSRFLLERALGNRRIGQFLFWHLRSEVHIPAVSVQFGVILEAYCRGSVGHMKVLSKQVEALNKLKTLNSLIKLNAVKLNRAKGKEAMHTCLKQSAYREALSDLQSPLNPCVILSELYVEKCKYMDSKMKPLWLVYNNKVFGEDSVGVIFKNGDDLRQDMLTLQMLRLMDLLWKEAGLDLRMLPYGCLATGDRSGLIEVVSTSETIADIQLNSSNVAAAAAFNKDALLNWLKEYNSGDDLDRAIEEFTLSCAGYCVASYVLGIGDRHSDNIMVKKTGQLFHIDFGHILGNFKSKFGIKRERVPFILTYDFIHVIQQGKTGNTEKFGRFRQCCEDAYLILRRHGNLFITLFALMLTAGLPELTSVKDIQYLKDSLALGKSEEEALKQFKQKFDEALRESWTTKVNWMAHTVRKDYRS
Sequence of Cytochrome P450 2C19 (P33261 whole entry): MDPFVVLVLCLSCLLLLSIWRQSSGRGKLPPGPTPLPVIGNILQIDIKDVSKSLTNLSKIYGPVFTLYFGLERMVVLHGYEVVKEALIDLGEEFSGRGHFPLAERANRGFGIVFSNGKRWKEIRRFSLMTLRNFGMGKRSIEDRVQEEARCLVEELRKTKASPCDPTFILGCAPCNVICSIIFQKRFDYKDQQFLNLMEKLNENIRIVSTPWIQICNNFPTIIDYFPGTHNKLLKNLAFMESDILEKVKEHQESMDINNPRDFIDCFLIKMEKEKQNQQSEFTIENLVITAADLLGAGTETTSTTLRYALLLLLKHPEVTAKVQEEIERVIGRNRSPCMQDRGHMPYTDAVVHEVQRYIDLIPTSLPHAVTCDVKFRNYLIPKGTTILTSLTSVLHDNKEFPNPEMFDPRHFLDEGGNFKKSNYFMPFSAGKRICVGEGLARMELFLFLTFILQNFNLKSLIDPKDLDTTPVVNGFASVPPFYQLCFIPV
Sequence of Cytochrome P450 2C9 (P11712 whole entry): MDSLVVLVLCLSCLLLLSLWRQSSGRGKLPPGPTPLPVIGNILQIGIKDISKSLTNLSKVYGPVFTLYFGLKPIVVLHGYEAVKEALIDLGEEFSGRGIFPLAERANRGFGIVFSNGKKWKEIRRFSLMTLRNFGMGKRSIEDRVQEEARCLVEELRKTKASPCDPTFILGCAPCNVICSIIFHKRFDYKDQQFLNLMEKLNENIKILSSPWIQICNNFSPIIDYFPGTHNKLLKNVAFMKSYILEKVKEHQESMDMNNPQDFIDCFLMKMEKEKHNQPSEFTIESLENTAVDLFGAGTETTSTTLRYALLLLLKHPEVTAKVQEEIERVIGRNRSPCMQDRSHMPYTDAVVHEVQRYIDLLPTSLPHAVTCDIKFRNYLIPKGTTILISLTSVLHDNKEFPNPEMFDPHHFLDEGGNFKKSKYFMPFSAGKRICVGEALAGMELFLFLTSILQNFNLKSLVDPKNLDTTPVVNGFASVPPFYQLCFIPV
Sequence of Cytochrome P450 1A2 (P05177 whole entry): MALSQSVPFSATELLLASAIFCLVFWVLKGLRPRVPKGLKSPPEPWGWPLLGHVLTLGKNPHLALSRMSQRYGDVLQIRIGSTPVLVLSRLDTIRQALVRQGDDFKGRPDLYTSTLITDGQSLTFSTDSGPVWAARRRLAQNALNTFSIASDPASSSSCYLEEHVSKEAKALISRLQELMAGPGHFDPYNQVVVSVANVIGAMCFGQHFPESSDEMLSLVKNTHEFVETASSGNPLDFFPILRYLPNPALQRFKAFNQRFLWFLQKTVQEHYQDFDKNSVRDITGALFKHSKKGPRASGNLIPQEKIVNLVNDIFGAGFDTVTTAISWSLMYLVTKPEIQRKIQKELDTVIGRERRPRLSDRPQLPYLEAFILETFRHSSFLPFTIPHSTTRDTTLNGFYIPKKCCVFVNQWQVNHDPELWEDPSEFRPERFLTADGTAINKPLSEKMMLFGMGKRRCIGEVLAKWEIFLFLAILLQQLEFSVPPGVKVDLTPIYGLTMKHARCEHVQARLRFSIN

Compound `C[C@H](NC(=O)c1cnc2ccc(-c3ccc4oc(N)nc4c3)cn12)C(N)=O` has an IC50 [1] of 0.0046 µM, an IC50 [2] of 0.818 µM and an IC50 [3] of 0.115 µM. For the same compound, the IC50 [4] was 0.233 µM, the IC50 [5] was 1.81 µM and the IC50 [6] was 7.05 µM. For the same compound, the IC50 [7] was 20.8 µM and the IC50 [8] was 11.3 µM.
In the case of `Nc1nc2cc(-c3ccc4ncc(C(=O)N5CCOCC5)n4c3)ccc2o1` [SERABELISIB], the IC50 [1] is reported as 0.011 µM, the IC50 [2] is reported as 0.594 µM and the IC50 [3] is reported as 0.328 µM. It also gave an IC50 [4] of 0.402 µM, an IC50 [5] of 0.64 µM and an IC50 [6] of 5.8 µM. For the same compound, the IC50 [7] was 15.8 µM, the IC50 [8] was 9.99 µM and the IC50 [9] was 3.76 µM. For the same compound, the IC50 [10] was 14.1 µM, the IC50 [11] was 34.1 µM and the IC50 [12] was 29 µM. It also gave a remaining at 1 h, 5 ug/ml [13] of 86.2%, a half-life at 5 ug/ml [14] of 4.44 h and a CLH [15] of 5 µL/min/mg. It also gave an IC50 [16] greater than 10 µM, an IC50 [17] greater than 10 µM and an IC50 [18] greater than 10 µM. It also gave an IC50 [19] greater than 10 µM, an IC50 [20] greater than 10 µM and an AUC(0-t) at 24 h [21] of 7120 ng·h/mL. For the same compound, the AUC(0-inf) [22] was 7520 ng·h/mL, the MRT last at 24 h [23] was 6.5 h and the MRT inf [24] was 7.9 h. The half-life [25] was 5.9 h, the clearance [26] was 11.7 mL/min/kg and the Vd [27] was 5.6 L/kg. The Cmax [28] was 1680 ng/mL, the Activity [29] was “Dose-Dependent Effect” and the Activity [30] was “Active”. For the same compound, the Activity [31] was 11.68%, the Stability [32] was “Stable” and the Stability [33] was “Stable”.
With `CN(C)C1CCN(C(=O)c2cnc3ccc(-c4ccc5oc(N)nc5c4)cn23)CC1` the IC50 [1] was 0.0282 µM, the IC50 [5] was 3.36 µM and the IC50 [6] was 4.03 µM. For the same compound, the IC50 [7] was greater than 100 µM and the IC50 [8] was 32 µM.
`C[C@H](Nc1ncnc2ccc(-c3ccc4oc(N)nc4c3)cc12)C(N)=O` showed an IC50 [1] of 0.0185 µM, an IC50 [5] greater than 100 µM and an IC50 [6] greater than 100 µM. It also gave an IC50 [7] greater than 100 µM and an IC50 [8] greater than 100 µM.
